Assays:
Test in all cases: relative viability (nuclei count vs DMSO), 5 days (fraction); higher = more cells survive
[1] = compound: C1=CC2=C(C=C(C(=C2N=C1)O)N=NC3=CC4=C(C=C3)C=C(C=C4)S(=O)(=O)O)S(=O)(=O)O + Nc1ncn([C@H]2C[C@H](O)[C@@H](CO)O2)c(=O)n1 [Decitabine] (partner 2 µM)
How it was run: (§1)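 Relative viability divides the nuclei count in treated wells by that in vehicle wells. Lung cancer cell lines were seeded in 1536-well plates, dosed by pin tool the next day, and fixed and stained after 5 days in one step with final 0.05% Triton X-100, 1% formaldehyde and 1 ug/ml Hoechst. Dosing was a single drug or a fixed anchor-drug dose plus five library-drug doses (not always all listed) in √10 steps, and values are medians of duplicate plates imaged at 4×.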

[2] = compound: C1=CC2=C(C=C(C(=C2N=C1)O)N=NC3=CC4=C(C=C3)C=C(C=C4)S(=O)(=O)O)S(=O)(=O)O + O=C(CCCCCCC(=O)Nc1ccccc1)NO [Vorinostat] (partner 1 µM)
How it was run: as §1

[3] = compound: O=C(NC1CCNCC1)c1n[nH]cc1NC(=O)c1c(Cl)cccc1Cl [AT-7519] + Cc1nc(NC(=O)N2CCC[C@H]2C(N)=O)sc1-c1ccnc(C(C)(C)C(F)(F)F)c1 [Alpelisib] (partner 2 µM)
How it was run: as §1

[4] = compound: O=C(NC1CCNCC1)c1n[nH]cc1NC(=O)c1c(Cl)cccc1Cl [AT-7519] + CS(=O)(=O)CCNCc1ccc(-c2ccc3ncnc(Nc4ccc(OCc5cccc(F)c5)c(Cl)c4)c3c2)o1 [Lapatinib] (partner 2 µM)
How it was run: as §1

Cell Line | relative viability ([1]; first compound 0.08 µM) | relative viability ([1]; first compound 0.253 µM) | relative viability ([1]; first compound 0.8 µM) | relative viability ([1]; first compound 2.53 µM) | relative viability ([1]; first compound 8 µM) | relative viability ([2]; first compound 0.08 µM) | relative viability ([2]; first compound 0.253 µM) | relative viability ([2]; first compound 0.8 µM) | relative viability ([2]; first compound 2.53 µM) | relative viability ([2]; first compound 8 µM) | relative viability ([3]; first compound 0.01 µM) | relative viability ([3]; first compound 0.03162 µM) | relative viability ([3]; first compound 0.3162 µM) | relative viability ([3]; first compound 1 µM) | relative viability ([4]; first compound 0.01 µM) | relative viability ([4]; first compound 0.03162 µM) | relative viability ([4]; first compound 0.3162 µM) | relative viability ([4]; first compound 1 µM)
HCC-827 | 0.402 | 0.311 | 0.297 | 0.342 | 0.306 | 0.926 | 0.813 | 0.826 | 0.876 | 0.785 | 1.03 | 0.999 | 1.02 | 0.708 | 0.21 | 0.165 | 0.162 | 0.157
HOP-62 | 0.186 | 0.206 | 0.24 | 0.254 | 0.228 | 0.438 | 0.693 | 0.602 | 0.619 | 0.6 | 1.19 | 0.965 | 0.936 | 0.668 | 1.03 | 0.963 | 1.06 | 1.05
IA-LM |  |  |  |  |  | 1.09 | 0.95 | 0.97 | 1.04 | 0.935 | 0.904 | 0.617 | 0.779 | 0.488 | 0.911 | 0.821 | 0.658 | 0.0627
LC-2-ad | 0.909 | 0.744 | 0.834 | 0.808 | 0.812 | 0.702 | 0.744 | 0.729 | 0.699 | 0.725 | 0.914 | 0.843 | 0.904 | 0.472 | 1.03 | 1.05 | 0.922 | 0.744
LCLC-97TM1 | 0.217 | 0.29 | 0.198 | 0.25 | 0.204 | 0.593 | 0.657 | 0.632 | 0.575 | 0.715 | 0.29 | 0.195 | 0.254 | 0.162 | 0.83 | 0.732 | 0.805 | 0.758
LCLC-103H | 0.811 | 0.774 | 0.655 | 0.744 | 0.732 | 0.797 | 0.784 | 0.827 | 0.785 | 0.859 | 0.956 | 0.908 | 0.976 | 0.952 |  |  |  | 
LK-2 | 0.417 | 0.254 | 0.201 | 0.384 | 0.296 | 0.308 | 0.333 | 0.292 | 0.263 | 0.178 | 0.697 | 1.12 | 0.827 | 0.514 | 0.816 | 0.951 | 0.706 | 0.706
LOU-NH91 | 0.865 | 0.791 | 0.834 | 0.791 | 0.841 | 1 | 0.89 | 0.903 | 0.865 | 0.639 | 0.768 | 0.703 | 0.729 | 0.579 | 0.786 | 0.736 | 0.795 | 0.673
LU99A | 0.91 | 0.818 | 0.767 | 0.838 | 0.705 | 0.534 | 0.445 | 0.63 | 0.494 | 0.53 | 0.612 | 0.435 | 0.478 | 0.42 | 1.02 | 1.07 | 0.898 | 0.41
LXF-289 | 0.412 | 0.383 | 0.395 | 0.371 | 0.31 | 0.75 | 0.719 | 0.817 | 0.704 | 0.766 | 1.03 | 1.07 | 1.08 | 0.921 | 0.929 | 0.902 | 0.953 | 0.912
NCI-H23 | 0.331 | 0.304 | 0.335 | 0.311 | 0.302 | 0.661 | 0.627 | 0.599 | 0.561 | 0.633 | 0.561 | 0.785 | 0.68 | 0.45 | 0.955 | 0.975 | 0.919 | 0.218
NCI-H322M | 0.764 | 0.715 | 0.708 | 0.723 | 0.768 | 0.967 | 0.825 | 0.864 | 0.856 | 0.905 | 0.823 | 0.725 | 0.721 | 0.824 | 0.648 | 0.606 | 0.525 | 0.67
NCI-H441 | 0.245 | 0.246 | 0.238 | 0.252 | 0.248 | 0.903 | 0.684 | 0.845 | 0.805 | 0.837 | 0.685 | 0.706 | 0.617 | 0.299 |  |  |  | 
NCI-H522 | 0.561 | 0.644 | 0.689 | 0.683 | 0.6 | 0.98 | 1.01 | 0.943 | 0.999 | 0.977 |  |  |  |  |  |  |  | 
NCI-H1299 |  |  |  |  |  |  |  |  |  |  | 1.1 | 1.08 | 1.17 | 1.15 | 0.994 | 0.977 | 0.975 | 0.58
NCI-H1563 |  |  |  |  |  |  |  |  |  |  | 0.868 | 0.942 | 0.942 | 0.781 | 0.923 | 0.971 | 1.07 | 1.01
NCI-H1648 |  | 0.525 |  |  | 0.551 |  | 0.825 |  |  | 0.479 |  |  |  |  |  |  |  | 
NCI-H1650 | 0.438 | 0.37 | 0.511 | 0.447 | 0.318 | 0.577 | 0.447 | 0.594 | 0.633 | 0.373 |  |  |  |  | 0.781 | 0.782 | 0.555 | 0.21
NCI-H1703 |  |  |  |  |  |  |  |  |  |  | 0.282 | 0.297 | 0.299 | 0.156 | 1.03 | 0.955 | 0.821 | 0.206
NCI-H1792 | 0.627 | 0.483 | 0.508 | 0.5 | 0.473 |  |  |  |  |  | 0.324 | 0.536 | 0.767 | 0.51 | 0.673 | 0.845 | 0.98 | 0.94
NCI-H2228 |  |  |  |  |  | 0.966 | 0.518 | 0.468 | 0.652 | 0.589 | 0.972 | 0.821 | 0.584 | 0.415 | 1.02 | 1.11 | 0.669 | 0.481
NCI-H2342 | 0.793 | 0.705 | 0.724 | 0.806 | 0.705 | 0.834 | 0.709 | 0.72 | 0.695 | 0.688 |  |  |  |  |  |  |  | 
SW 900 | 0.442 | 0.412 | 0.448 | 0.473 | 0.538 | 0.624 | 0.399 | 0.604 | 0.611 | 0.426 |  |  |  |  |  |  |  | 

— the supplement of paper PMC10307832
